Measurements: paper PMC3945162 (Psychopharmacology, 2013)
“And” between values parts separate entries of the source, which are not always exact repeats. Identical values can stand only once. Like-named read-outs stand apart in the source and are kept apart here.

Legend:
hNET [1] = target: T1, hNET (Homo sapiens, UniProt P23975); assay: biochemical; assay type: binding
hDAT [2] = target: T2, hDAT (Homo sapiens, UniProt Q01959); assay: [3H]Dopamine uptake, HEK-hDAT cells; assay type: cell-based
hDAT [3] = target: T2, hDAT; assay: [125I]RTI-55 binding, HEK-hDAT cells
hSERT [4] = target: T3, hSERT (Homo sapiens, UniProt P31645); assay: [125I]RTI-55 binding, HEK-hSERT cells
T3 sequence (P31645 whole entry): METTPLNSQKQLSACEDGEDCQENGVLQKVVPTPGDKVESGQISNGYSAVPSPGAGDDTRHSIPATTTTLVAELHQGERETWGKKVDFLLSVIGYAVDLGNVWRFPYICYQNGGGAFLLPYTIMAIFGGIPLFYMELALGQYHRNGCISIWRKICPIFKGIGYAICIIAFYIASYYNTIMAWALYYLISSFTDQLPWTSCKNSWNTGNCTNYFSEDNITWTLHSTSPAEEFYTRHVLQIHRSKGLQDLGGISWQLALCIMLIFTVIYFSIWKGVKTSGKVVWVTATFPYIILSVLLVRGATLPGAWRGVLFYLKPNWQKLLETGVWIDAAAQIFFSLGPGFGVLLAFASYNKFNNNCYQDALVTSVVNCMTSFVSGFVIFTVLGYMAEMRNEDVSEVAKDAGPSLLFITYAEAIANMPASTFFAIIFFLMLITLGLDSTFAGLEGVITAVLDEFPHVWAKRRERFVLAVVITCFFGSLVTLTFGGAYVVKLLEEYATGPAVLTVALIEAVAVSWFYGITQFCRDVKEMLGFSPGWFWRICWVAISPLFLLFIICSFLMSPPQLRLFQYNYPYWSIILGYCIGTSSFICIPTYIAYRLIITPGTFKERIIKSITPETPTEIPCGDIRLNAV

hNET [5] = target: T1, hNET; assay: cell-based
human 5-HT2A receptor [6] = target: T4, human 5-HT2A receptor (Homo sapiens, UniProt P28223); assay: [3H]AA release from HEK-5-HT2A cells; assay type: cell-based; conditions: for Emax: read-out: 5-HT2A Function [3H]AA release % maximal effect
T4 sequence (P28223 whole entry): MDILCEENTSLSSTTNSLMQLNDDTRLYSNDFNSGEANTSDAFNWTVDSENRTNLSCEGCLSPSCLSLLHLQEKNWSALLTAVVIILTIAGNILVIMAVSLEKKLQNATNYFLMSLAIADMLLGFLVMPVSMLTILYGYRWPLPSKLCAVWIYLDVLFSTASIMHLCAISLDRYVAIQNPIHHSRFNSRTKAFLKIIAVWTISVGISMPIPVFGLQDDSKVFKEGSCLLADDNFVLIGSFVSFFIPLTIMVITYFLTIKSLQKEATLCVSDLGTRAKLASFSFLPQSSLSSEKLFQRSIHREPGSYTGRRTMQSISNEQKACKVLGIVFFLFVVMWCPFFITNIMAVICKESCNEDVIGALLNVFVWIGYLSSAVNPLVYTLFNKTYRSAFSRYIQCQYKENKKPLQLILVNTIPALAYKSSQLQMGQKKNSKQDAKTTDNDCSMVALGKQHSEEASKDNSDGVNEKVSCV

hSERT [7] = target: T3, hSERT; assay: [3H]Serotonin uptake, HEK-hSERT cells; assay type: cell-based
human 5-HT2A receptor [8] = target: T4, human 5-HT2A receptor; assay: IP-1 formation, HEK-5-HT2A cells; assay type: cell-based; conditions: for Emax: read-out: 5-HT2A Function IP-1 formation % maximal effect
human 5-HT2C receptor [9] = target: T5, human 5-HT2C receptor (Homo sapiens, UniProt P28335); assay: biochemical; assay type: binding
T5 sequence (P28335 33-458): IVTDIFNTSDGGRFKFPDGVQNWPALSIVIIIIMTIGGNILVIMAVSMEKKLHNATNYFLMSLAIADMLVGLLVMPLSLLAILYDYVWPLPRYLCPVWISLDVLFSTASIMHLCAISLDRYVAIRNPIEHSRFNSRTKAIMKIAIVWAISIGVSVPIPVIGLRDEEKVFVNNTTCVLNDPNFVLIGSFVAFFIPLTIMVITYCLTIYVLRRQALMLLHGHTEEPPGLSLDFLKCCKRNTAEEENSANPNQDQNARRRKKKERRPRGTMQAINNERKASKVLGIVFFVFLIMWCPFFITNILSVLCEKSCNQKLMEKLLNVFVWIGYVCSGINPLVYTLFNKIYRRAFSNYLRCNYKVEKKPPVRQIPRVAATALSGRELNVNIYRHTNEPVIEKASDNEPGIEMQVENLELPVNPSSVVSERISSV

human 5-HT1A receptor [10] = target: T6, human 5-HT1A receptor (Homo sapiens, UniProt P08908); assay: [3H]8-OH-DPAT binding, HEK-5-HT1A
T6 sequence (P08908 1-422): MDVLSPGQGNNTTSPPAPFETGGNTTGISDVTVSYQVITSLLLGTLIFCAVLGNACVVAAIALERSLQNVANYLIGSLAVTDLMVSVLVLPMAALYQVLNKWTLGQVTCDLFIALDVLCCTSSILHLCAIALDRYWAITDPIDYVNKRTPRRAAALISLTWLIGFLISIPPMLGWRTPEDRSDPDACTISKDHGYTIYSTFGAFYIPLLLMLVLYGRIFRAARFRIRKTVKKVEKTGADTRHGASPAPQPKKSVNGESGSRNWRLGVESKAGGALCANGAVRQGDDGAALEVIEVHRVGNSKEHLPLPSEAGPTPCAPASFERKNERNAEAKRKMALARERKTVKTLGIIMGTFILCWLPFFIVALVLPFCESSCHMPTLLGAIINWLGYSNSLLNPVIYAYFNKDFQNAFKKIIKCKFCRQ

hNET [11] = target: T1, hNET; assay: cell-based; remark: listed apart in the source
human 5-HT2C receptor [12] = target: T5, human 5-HT2C receptor; assay: cell-based; conditions: for Emax: read-out: 5-HT2C Function IP-formation % maximal effect
human 5-HT2A receptor [13] = target: T4, human 5-HT2A receptor; assay: [125I]DOI binding, HEK-5-HT2A cells
[14] = test system: rats trained to discriminate LSD (0.1 mg/kg) from saline; assay type: in vivo, rat; conditions: LSD-trained rats, 15 min pretreatment; for Maximum %DAR (drug-appropriate responding): i.p., at dose of maximum DAR
hDAT [15] = target: T2, hDAT; assay: [3H]Dopamine release, HEK-hDAT cells; assay type: cell-based; conditions: HEK-hDAT cells
Male Swiss–Webster mice = assay: Locomotor activity; assay type: in vivo, mouse; conditions: mice, i.p.
hSERT [16] = target: T3, hSERT; assay: [3H]Serotonin release, HEK-hSERT cells; assay type: cell-based
[17] = test system: rats trained to discriminate METH (1 mg/kg) from saline; assay type: in vivo, rat; conditions: METH-trained rats, 15 min pretreatment
human 5-HT1A receptor [18] = target: T6, human 5-HT1A receptor; assay: [35S]GTPγS binding functional assay, HEK-5-HT1A; assay type: biochemical; conditions: for Emax: read-out: 5-HT1A Function [35S]GTPγS Binding % maximal effect
[19] = test system: rats trained to discriminate MDMA (1.5 mg/kg) from saline; assay type: in vivo, rat; conditions: for Rate of responding at dose of maximum DAR / Maximum %DAR (drug-appropriate responding): MDMA-trained rats, 15 min pretreatment; for Maximum %DAR (drug-appropriate responding): i.p., at dose of maximum DAR
[20] = test system: rats trained to discriminate DMT (5 mg/kg) from saline; assay type: in vivo, rat; conditions: DMT-trained rats; 15 min pretreatment
Male Sprague-Dawley rats = assay: Adverse effects observed during drug discrimination test sessions; assay type: in vivo, rat
[21] = test system: rats trained to discriminate DOM (0.5 mg/kg) from saline; assay type: in vivo, rat; conditions: 15 min pretreatment
[22] = normalized to the maximal effect of serotonin

T1 sequence (P23975 whole entry): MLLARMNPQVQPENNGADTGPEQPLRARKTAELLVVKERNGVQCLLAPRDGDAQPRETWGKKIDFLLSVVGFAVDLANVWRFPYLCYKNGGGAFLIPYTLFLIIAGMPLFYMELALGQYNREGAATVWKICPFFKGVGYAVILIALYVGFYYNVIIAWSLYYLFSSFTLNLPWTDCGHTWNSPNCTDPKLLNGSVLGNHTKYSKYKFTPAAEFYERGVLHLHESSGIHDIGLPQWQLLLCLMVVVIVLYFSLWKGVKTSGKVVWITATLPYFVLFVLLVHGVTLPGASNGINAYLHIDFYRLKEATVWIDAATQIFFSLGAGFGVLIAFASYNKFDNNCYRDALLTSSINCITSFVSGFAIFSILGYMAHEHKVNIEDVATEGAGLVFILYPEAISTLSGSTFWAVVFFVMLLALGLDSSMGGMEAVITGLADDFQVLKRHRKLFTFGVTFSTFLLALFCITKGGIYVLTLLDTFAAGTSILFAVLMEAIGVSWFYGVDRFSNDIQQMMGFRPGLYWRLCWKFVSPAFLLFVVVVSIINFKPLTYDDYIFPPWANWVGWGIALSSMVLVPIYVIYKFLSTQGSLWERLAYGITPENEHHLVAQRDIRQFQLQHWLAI
T2 sequence (Q01959 whole entry): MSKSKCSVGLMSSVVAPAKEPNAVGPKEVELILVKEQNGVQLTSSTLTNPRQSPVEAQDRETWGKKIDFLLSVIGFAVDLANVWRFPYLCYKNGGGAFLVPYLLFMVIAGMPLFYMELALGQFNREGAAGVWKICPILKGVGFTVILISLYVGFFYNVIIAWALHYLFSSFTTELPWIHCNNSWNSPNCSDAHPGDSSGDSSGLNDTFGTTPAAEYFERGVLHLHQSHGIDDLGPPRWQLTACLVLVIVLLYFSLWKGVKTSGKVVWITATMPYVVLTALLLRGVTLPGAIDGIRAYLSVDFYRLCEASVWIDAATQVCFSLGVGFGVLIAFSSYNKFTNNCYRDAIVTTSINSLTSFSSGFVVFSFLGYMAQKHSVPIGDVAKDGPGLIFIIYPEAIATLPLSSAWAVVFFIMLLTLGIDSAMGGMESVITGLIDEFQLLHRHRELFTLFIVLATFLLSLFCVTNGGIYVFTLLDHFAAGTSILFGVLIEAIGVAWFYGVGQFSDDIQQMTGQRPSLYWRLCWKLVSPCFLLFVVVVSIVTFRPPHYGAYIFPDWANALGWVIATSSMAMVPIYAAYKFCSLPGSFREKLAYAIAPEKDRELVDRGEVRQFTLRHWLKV

Row | SMILES | Ki (hNET [1]) | IC50 (hDAT [2]) | Ki (hDAT [3]) | Ki (hSERT [4]) | Ki (human 5-HT1A receptor [10]) | IC50 (hNET [5]) | [3H]NE release % METH maximal effect (hNET [11]) | Emax (human 5-HT2A receptor [6]) | Ki (human 5-HT2A receptor [13]) | Rate of responding at dose of maximum DAR [14] | [3H]Dopamine release % METH maximal effect (hDAT [15]) | Duration of depressant effects (Male Swiss–Webster mice) | [3H]Serotonin release % PCA maximal effect (hSERT [16]) | IC50 (hSERT [7]) | Rate of responding at dose of maximum DAR [17] | EC50 (human 5-HT1A receptor [18]) | Emax (human 5-HT1A receptor [18]) | Rate of responding at dose of maximum DAR [19] | EC50 (human 5-HT2A receptor [8]) | Emax (human 5-HT2A receptor [8]) | also measured
1 | CCN(CC)C(=O)[C@@H]1C=C2c3cccc4[nH]cc(c34)C[C@H]2N(C)C1 [LSD, lysergic acid diethylamide, reference compound] |  |  |  |  |  |  |  |  |  |  |  |  |  |  |  |  |  |  |  |  | Ki (hNET [1]; read-out: hNET [125I]RTI-55 binding Ki): 5.6 ± 0.26 µM; IC50 (hDAT [2]; read-out: [3H]Dopamine uptake IC50, HEK-hDAT cells, cells printed in μM): > 10 µM; Ki (hDAT [3]; read-out: hDAT [125I]RTI-55 binding Ki, HEK-hDAT cells, cells printed in μM): > 10 µM; Ki (hSERT [4]; read-out: hSERT [125I]RTI-55 binding Ki, HEK-hSERT cells, cells printed in μM): > 10 µM; IC50 (hNET [5]; read-out: [3H]NE uptake IC50): > 10 µM; 5-HT2A Function [3H]AA release % maximal effect (human 5-HT2A receptor [6]; [22]): 87.8 ± 3.4%; IC50 (hSERT [7]; read-out: [3H]Serotonin uptake IC50, HEK-hSERT cells, cells printed in μM): > 10 µM; 5-HT2A Function IP-1 formation % maximal effect (human 5-HT2A receptor [8]; [22]): 80.3 ± 4.9%
2 | COc1cc(CCN)c(OC)cc1I [2C-I, 2,5-dimethoxy-4-iodophenethylamine] | > 10 µM | > 9.6 µM | > 10 µM | 0.95 ± 0.44 µM | 0.97 ± 0.43 µM | > 8.2 µM | ND Minimal | 32.5 ± 1.5% | 0.0093 ± 0.0032 µM | 0.233±0.075 resp/s | ND Minimal | 30 to 60 min | ND Minimal | 5.6 ± 2.1 µM | 0.447±0.058 resp/s | 4.9 ± 2 µM | 102 ± 4.7% | 0.453±0.169 resp/s | 0.0079 ± 0.0022 µM | 82.4 ± 6.4% | Ki (human 5-HT2C receptor [9]): 0.0102 ± 0.0017 µM; EC50 (human 5-HT2C receptor [12]): 0.0028 ± 0.001 µM; Emax (human 5-HT2C receptor [12]): 79 ± 16%; Maximum %DAR (drug-appropriate responding) [14]: 80±20 %; Doses producing depression of locomotor activity (Male Swiss–Webster mice): 3 to 30 mg/kg; Onset of depressant effects (within, after injection) (Male Swiss–Webster mice): ≤ 10 min; Maximum %DAR (drug-appropriate responding) ([17]; i.p., at dose of maximum DAR): 38% and 38±17 ^1%; Maximum %DAR (drug-appropriate responding) [19]: 65% and 65±21 ^1%; Dose(s) that decreased response rate ([19]; rat, in vivo): 2.5 to 10 mg/kg; Rate of responding at dose of maximum DAR [20]: 0.480±0.092 resp/s
3 | CCc1cc(OC)c(CCN)cc1OC [2C-E, 2,5-dimethoxy-4-ethylphenethylamine] | > 7.6 µM | > 10 µM | > 10 µM | > 10 µM |  | > 9.8 µM | ND Minimal | 65 ± 11% | 0.0045 ± 0.00071 µM | 0.413±0.061 resp/s | ND Minimal | 50 to 70 min | ND Minimal | > 7.5 µM | 0.228±0.024 resp/s |  | < 20% | 0.053±0.036 resp/s | 0.084 ± 0.016 µM | 125 ± 13% | Adverse effect observed (Male Sprague-Dawley rats; 10 mg/kg, MDMA-trained rats): Loss of muscle tone; Effect on responding (Male Sprague-Dawley rats; 25 mg/kg): completely suppressed responding; EC50 (human 5-HT2A receptor [6]): 0.0071 ± 0.0033 µM; Maximum %DAR (drug-appropriate responding) [14]: 97±3 %; Duration of stimulant effects (Male Swiss–Webster mice): 70 to 100 min; Onset of depressant effects (within, after injection) (Male Swiss–Webster mice): ≤ 10 min; Onset of stimulant effects (within, after injection) (Male Swiss–Webster mice): ≤ 50 min; Maximum %DAR (drug-appropriate responding) [19]: 100±0 %; Rate of responding at dose of maximum DAR [21]: 0.576±0.087 resp/s; Maximum %DAR (drug-appropriate responding) ([21]; i.p., at dose of maximum DAR): 97±2 %; Rate of responding at dose of maximum DAR [20]: 0.466±0.166 resp/s
4 | CNC(C)Cc1ccc2c(c1)OCO2 (stereo not drawn) [MDMA, 3,4-methylenedioxymethamphetamine, reference compound] |  |  |  |  | 11.9 ± 1.2 µM |  |  |  | 20.9 ± 4.6 µM |  |  |  |  |  |  | 36 ± 16 µM | 64.3 ± 9.4% |  | 5500 ± 2300 µM | 40.2 ± 7.1% | Emax (human 5-HT2C receptor [12]): 92.2 ± 8%
5 | COC(=O)[C@H]1[C@@H](OC(=O)c2ccccc2)C[C@@H]2CC[C@H]1N2C [Cocaine, reference compound] |  |  |  |  |  |  |  |  |  |  | ND Minimal |  | ND Minimal |  |  |  |  |  |  |  | 
6 | NCCc1c[nH]c2ccc(O)cc12 [Serotonin, reference compound] |  |  |  |  |  |  |  |  |  |  |  |  |  |  |  |  |  |  |  |  | Average maximal stimulation of IP-1 formation (human 5-HT2A receptor [8]; HEK-5-HT2A cells): 565 ± 46 nM IP1
7 | COc1cc(CC(C)N)c(OC)cc1C (stereo not drawn) [DOM, 2,5-dimethoxy-4-methylamphetamine, reference compound] |  |  |  |  | 11.9 ± 5.6 µM |  |  |  | 0.0081 ± 0.0022 µM |  |  |  |  |  |  | 13.9 ± 1.5 µM | 53.8 ± 9.7% |  | 0.0312 ± 0.0096 µM | 106 ± 11% | 
8 | CN(C)CCc1c[nH]c2ccccc12 [DMT, N,N,-dimethyltryptamine, reference compound] |  |  |  |  |  |  |  | 105 ± 3% | 0.201 ± 0.048 µM |  |  |  |  |  |  |  | 100 ± 5.2% |  | 0.269 ± 0.061 µM | 39 ± 4.6% | EC50 (human 5-HT2A receptor [6]): 0.26 ± 0.12 µM
9 | CCSc1cc(OC)c(CCN)cc1OC [2C-T-2, 2,5-dimethoxy-4-ethylthiophenethylamine] | > 10 µM | > 10 µM | > 10 µM | > 9.4 µM | 1.74 ± 0.66 µM | > 7.2 µM | ND Minimal | 107 ± 6.3% | 0.0125 ± 0.0044 µM | 0.208±0.117 resp/s | ND Minimal | 30 to 50 min | ND Minimal | > 8.6 µM | 0.748±0.109 resp/s | 3 ± 1.3 µM | 76 ± 10% | 0.448±0.130 resp/s | 0.0079 ± 0.002 µM | 87.4 ± 6.5% | Decreased muscle tone (rats affected/tested) (Male Sprague-Dawley rats; 5 mg/kg, LSD-trained rats): 3/6; Adverse effects observed (Male Sprague-Dawley rats; 10 mg/kg): hind limb paralysis, salivation and loss of muscle tone; Rats that failed to complete the first fixed ratio (Male Sprague-Dawley rats; highest dose tested, in each of DMT-, LSD-, MDMA- and METH-trained groups): 5/6; EC50 (human 5-HT2A receptor [6]): 0.0023 ± 0.00069 µM; Rate of responding at dose of maximum DAR [20]: 0.170±0.106 resp/s
